Laboratory results: US20170216234A1, “BENZOATES FOR USE IN TREATING DEMENTIA” (priority 2014, published 2017)

Tests used:
AD patients = settings: some clinical studies; cited from earlier work
neuron death = settings: cited from earlier work
healthy humans = settings: cited from earlier work
[1] = both in vitro and in vivo studies; cited from earlier work
MCI and mild AD = settings: cited from earlier work
MCI = settings: treatment of MCI; cited from earlier work
[2] = test system: patients with aMCI or mild AD; experiment: Side effects, Udvalg for Kliniske Undersogelser Side-effects Rating Scale, in 24-week trial; assay type: in vivo, human
Procedure: Systemic side effects of treatments were evaluated by means of physical and neurological examinations and laboratory tests including CBC and biochemistry and reviewed by applying the Udvalg for Kliniske Undersogelser Side-effects Rating Scale at the baseline and weeks 8, 16, and 24.

[3] = Brain mass by magnetic resonance imaging study; assay type: in vivo
[4] = test system: patients with schizophrenia; settings: 1000 mg/day, cited from earlier work
NMDAR models = settings: preclinical studies; cited from earlier work
glial cells = settings: preclinical studies; cited from earlier work
[5] = test system: patients with aMCI or mild AD; experiment: CIBIC-plus in 24-week trial
[6] = test system: patients with aMCI or mild AD; experiment: ADAS-cog in 24-week randomized double-blind placebo-controlled trial; settings: for ADAS-cog score, mean difference from baseline: all subjects
[7] = test system: patients with aMCI or mild AD; experiment: Additional cognition composite (speed of processing, working memory, verbal learning and memory) in 24-week trial

N[C@@H]1CONC1=O [D-cycloserine]
Score on the cognitive subscale of the Alzheimer's Disease Assessment Scale (ADAS-cog) (AD patients): improve their score

N[C@H](CO)C(=O)O [D-serine]
Extent of neuron death (neuron death): significantly decreases

CNC1(c2ccccc2Cl)CCCCC1=O (centres unmarked) [Ketamine]
Spatial learning and verbal information ability (healthy humans): impaired

C[C@]12N[C@H](Cc3ccccc31)c1ccccc12 [MK-801]
Apoptosis and neurodegeneration [1]: induce apoptosis and neurodegeneration

CC12CC3CC(C)(C1)CC(N)(C3)C2 [Memantine]
Efficacy in treating MCI (British Association for Psychopharmacology consensus statement) (MCI and mild AD; MCI): neither AChEIs nor memantine is effective | Efficacy at the early phase, including MCI and mild AD (MCI and mild AD; human, in vivo): limited efficacy

Nc1nc2ncc(CNc3ccc(C(=O)N[C@@H](CCC(=O)O)C(=O)O)cc3)nc2c(=O)[nH]1 [folic acid]
Cognitive enhancing effect (MCI): failed to show convincing evidence

NC(=O)CN1CCCC1=O [piracetam, reference compound]
Cognitive enhancing effect (MCI): failed to show convincing evidence

O=C([O-])c1ccccc1.[Na+] [sodium benzoate]
Tolerability ([2]; 24-week treatment): well-tolerated | Reported side effects on Udvalg for Kliniske Undersogelser Side-effects Rating Scale ([2]; all visits): no reported side effect | Brain mass [3]: can increase the brain mass | Side effects in earlier schizophrenia study ([4]; chronic schizophrenia): without obvious side effects | Neurocognitive function ([4]; patients with schizophrenia): beneficial | Effect in NMDAR models such as pain relief (NMDAR models): effective | Cell death in glial cells (glial cells): partially prevented cell death | CIBIC-plus vs placebo, subgroup ([5]; CDR 1 subgroup, week 24 and endpoint (p=.040, p=.018)): greater improvement than placebo therapy | CIBIC-plus score, subgroup ([5]; aMCI (CDR .5) subgroup): did no improve | CIBIC-plus effect size vs placebo ([5]; at endpoint): .73 | CIBIC-plus score vs placebo ([5]; week 16 (p=.015), week 24 (p=.016), endpoint (p=.012), all subjects): greater improvement | ADAS-cog vs placebo, subgroup ([6]; CDR 1 subgroup, weeks 16 and 24 and endpoint (p=0151, p=.0387, p=.0092)): greater improvement than placebo therapy | ADAS-cog vs placebo, subgroup ([6]; CDR .5 subgroup, throughout the study (p>.05)): not superior to the placebo therapy | ADAS-cog effect size (Cohen's d) vs placebo ([6]; at the end of the study): .86 | ADAS-cog score, mean difference from baseline ([6]; endpoint, p=.0031 vs placebo): 5.9 | ADAS-cog score, mean difference from baseline ([6]; week 8, 250-750 mg/day, p=.3730 vs placebo): 3.8 | ADAS-cog score, mean difference from baseline ([6]; week 16, p=.0021 vs placebo): 5.4 | ADAS-cog score, mean difference from baseline ([6]; week 24, p=.0116 vs placebo): 5.9 | Additional cognition composite vs placebo, subgroup ([7]; CDR 1 subgroup, p=.041): better efficacy | Additional cognition composite vs placebo, subgroup ([7]; CDR .5 subgroup, p=.063): borderline significance | Additional cognition composite effect size vs placebo ([7]; endpoint): .78 | Additional cognition composite vs placebo ([7]; endpoint, all subjects, p=.007): better than placebo

omega-3 fatty acid
Cognitive enhancing effect (MCI): failed to show convincing evidence

vitamin E
Cognitive enhancing effect (MCI): failed to show convincing evidence
